Results as given in US20040010001A1, “Methods and compositions for modulating cell proliferation and cell death” (priority 1999, published 2004).
Where two headings read alike, the source gives them in different places.

What was measured:
Format in all cases: cell-based
[1] = tested on: rat primary tumors, histocultures; test: Drug effect in histocultures of rat primary tumors (inhibition of 3H-thymidine incorporation); settings: Histocultures, Primary, 96 hours, read-out: Concentration producing 50% inhibition
[2] = tested on: rat primary tumor cells, monolayers; test: Drug effect in monolayers of rat primary tumor cells (inhibition of bromodeoxyuridine incorporation); settings: 96 h, read-out: Concentration producing 50% inhibition
[3] = tested on: rat lymph node metastasis cells, monolayers; test: Drug effect in monolayers of rat lymph node metastasis cells (inhibition of bromodeoxyuridine incorporation); settings: 96 h, read-out: Concentration producing 50% inhibition
[4] = tested on: rat lung metastasis cells, monolayers; test: Drug effect in monolayers of rat lung metastasis cells (inhibition of bromodeoxyuridine incorporation); settings: 96 h, read-out: Concentration producing 50% inhibition
[5] = tested on: Human breast BC19 (subline of MCF7 transfected with mdr1); test: FGF-induced resistance, inhibition of BrdU incorporation; settings: read-out: Drug concentration needed to produce 50% inhibition
In short: (§1)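 Monolayers were pretreated for 96 h with human recombinant aFGF and/or bFGF in medium with 1% FBS (protein adjusted to 2 mg/ml, renewed every other day) and then drug-treated for 96 h. Antiproliferative effect was read as inhibition of BrdU incorporation.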

[6] = tested on: Human breast MCF7; test: as above; settings: read-out: Drug concentration needed to produce 50% inhibition
In short: as §1

[7] = tested on: Human colon HT-29; test: as above; settings: read-out: Drug concentration needed to produce 50% inhibition
In short: as §1

[8] = tested on: Human lung A459; test: as above; settings: read-out: Drug concentration needed to produce 50% inhibition
In short: as §1

[9] = tested on: Human pharynx FaDu; test: as above; settings: read-out: Drug concentration needed to produce 50% inhibition
In short: as §1

[10] = tested on: Human prostate PC3; test: as above; settings: Homo sapiens, read-out: Drug concentration needed to produce 50% inhibition
In short: as §1

[11] = tested on: Rat prostate MAT-LyLu; test: as above; settings: read-out: Drug concentration needed to produce 50% inhibition
In short: as §1

[12] = 96 h, r-aFGF + r-bFGF 0.04 ± 1 ng/ml
[13] = 96 h, r-aFGF + r-bFGF 0.08 ± 1 ng/ml
[14] = 96 h, r-aFGF + r-bFGF 0.32 ± 1 ng/ml
[15] = 96 h, r-aFGF + r-bFGF 0.64 ± 1 ng/ml
[16] = 96 h, r-aFGF + r-bFGF 1 ± 1 ng/ml

Compound: COc1cccc2c1C(=O)c1c(O)c3c(c(O)c1C2=O)C[C@@](O)(C(=O)CO)C[C@@H]3O[C@H]1C[C@H](N)[C@H](O)[C@H](C)O1 [Doxorubicin]
- IC50 [1]: 18 ± 11 nM
- IC50 ([2]; Monolayers (passage 0)): 8 ± 0.5 nM
- IC50 ([2]; Monolayers (passage 1)): 8.6 ± 0.5 nM
- IC50 ([2]; Monolayers (passage 2)): 8 ± 0.4 nM
- IC50 ([2]; Monolayers (passage 3)): 8 ± 0.2 nM
- IC50 ([3]; Monolayers (passage 0)): 31 ± 2.3 nM
- IC50 ([3]; Monolayers (passage 1)): 17.9 ± 1.2 nM
- IC50 ([3]; Monolayers (passage 2)): 11 ± 0.4 nM
- IC50 ([3]; Monolayers (passage 3)): 7.8 ± 0.5 nM
- IC50 ([4]; Monolayers (passage 0)): 77 ± 2.9 nM
- IC50 ([4]; Monolayers (passage 1)): 31.7 ± 8.9 nM
- IC50 ([4]; Monolayers (passage 2)): 16.6 ± 1 nM
- IC50 ([4]; Monolayers (passage 3)): 8 ± 0.5 nM
- IC50 ([5]; r-bFGF 0 ng/ml): 128 nM
- IC50 ([5]; r-bFGF 0.01 ng/ml): 150 nM
- IC50 ([5]; r-bFGF 0.1 ng/ml): 270 nM
- IC50 ([5]; r-bFGF 1 ng/ml): 407 nM
- IC50 ([6]; MCF7, r-bFGF 0 ng/ml): 16.9 nM
- IC50 ([6]; MCF7, r-bFGF 0.01 ng/ml): 21.3 nM
- IC50 ([6]; MCF7, r-bFGF 0.1 ng/ml): 37.6 nM
- IC50 ([6]; MCF7, r-bFGF 1 ng/ml): 595 nM
- IC50 ([7]; HT-29, 96 h, r-aFGF + r-bFGF 0 ng/ml): 30.2 nM
- IC50 ([7]; HT-29, 96 h, r-aFGF + r-bFGF 0.04 ± 1 ng/ml): 29.1 nM
- IC50 ([7]; HT-29, 96 h, r-aFGF + r-bFGF 0.08 ± 1 ng/ml): 30 nM
- IC50 ([7]; HT-29, 96 h, r-aFGF + r-bFGF 0.16 ± 1 ng/ml): 30.5 nM
- IC50 ([7]; HT-29, 96 h, r-aFGF + r-bFGF 0.32 ± 1 ng/ml): 48.1 nM
- IC50 ([7]; HT-29, 96 h, r-aFGF + r-bFGF 0.64 ± 1 ng/ml): 72.7 nM
- IC50 ([7]; HT-29, 96 h, r-aFGF + r-bFGF 1 ± 1 ng/ml): 131 nM
- IC50 ([7]; HT-29, r-aFGF 0 ng/ml): 30.2 nM
- IC50 ([7]; HT-29, r-aFGF 1 ng/ml): 32.1 nM
- IC50 ([7]; HT-29, r-aFGF 10 ng/ml): 30.3 nM
- IC50 ([7]; HT-29, r-aFGF 50 ng/ml): 30 nM
- IC50 ([7]; HT-29, r-bFGF 0 ng/ml): 24.1 nM
- IC50 ([7]; HT-29, r-bFGF 1 ng/ml): 24.4 nM
- IC50 ([7]; HT-29, r-bFGF 10 ng/ml): 24.5 nM
- IC50 ([7]; HT-29, r-bFGF 50 ng/ml): 26.1 nM
- IC50 ([8]; A459, 96 h, r-aFGF + r-bFGF 0 ng/ml): 122 nM
- IC50 ([8]; A459, 96 h, r-aFGF + r-bFGF 0.04 ± 1 ng/ml): 118 nM
- IC50 ([8]; A459, 96 h, r-aFGF + r-bFGF 0.08 ± 1 ng/ml): 159 nM
- IC50 ([8]; A459, 96 h, r-aFGF + r-bFGF 0.16 ± 1 ng/ml): 238 nM
- IC50 ([8]; A459, 96 h, r-aFGF + r-bFGF 0.32 ± 1 ng/ml): 309 nM
- IC50 ([8]; A459, 96 h, r-aFGF + r-bFGF 0.64 ± 1 ng/ml): 386 nM
- IC50 ([8]; A459, 96 h, r-aFGF + r-bFGF 1 ± 1 ng/ml): 582 nM
- IC50 ([8]; A459, r-aFGF 0 ng/ml): 122 nM
- IC50 ([8]; A459, r-aFGF 1 ng/ml): 120 nM
- IC50 ([8]; A459, r-aFGF 10 ng/ml): 123 nM
- IC50 ([8]; A459, r-aFGF 50 ng/ml): 118 nM
- IC50 ([8]; A459, r-bFGF 0 ng/ml): 119 nM
- IC50 ([8]; A459, r-bFGF 1 ng/ml): 118 nM
- IC50 ([8]; A459, r-bFGF 10 ng/ml): 238 nM
- IC50 ([8]; A459, r-bFGF 50 ng/ml): 285 nM
- IC50 ([9]; 96 h, r-aFGF + r-bFGF 0 ng/ml): 13.5 nM
- IC50 [9, 12]: 13.5 nM
- IC50 [9, 13]: 14 nM
- IC50 ([9]; 96 h, r-aFGF + r-bFGF 0.16 ± 1 ng/ml): 13.7 nM
- IC50 [9, 14]: 14.1 nM
- IC50 [9, 15]: 27.5 nM
- IC50 [9, 16]: 54 nM
- IC50 ([9]; r-aFGF 0 ng/ml): 13.5 nM
- IC50 ([9]; r-aFGF 1 ng/ml): 13 nM
- IC50 ([9]; r-aFGF 10 ng/ml): 13.7 nM
- IC50 ([9]; r-aFGF 50 ng/ml): 14 nM
- IC50 ([9]; r-bFGF 0 ng/ml): 14.2 nM
- IC50 ([9]; r-bFGF 1 ng/ml): 13.9 nM
- IC50 ([9]; r-bFGF 10 ng/ml): 14.1 nM
- IC50 ([9]; r-bFGF 50 ng/ml): 13.7 nM
- IC50 ([10]; 96 h, r-aFGF + r-bFGF 0 ng/ml): 8.2 nM
- IC50 [10, 12]: 8.5 nM
- IC50 [10, 13]: 15.2 nM
- IC50 [10, 14]: 62.2 nM
- IC50 [10, 15]: 84.8 nM
- IC50 [10, 16]: 107 nM
- IC50 ([10]; 96 h, r-aFGF + r-bFGF): 35.3 nM
- IC50 ([10]; r-aFGF 0 ng/ml): 8.2 nM
- IC50 ([10]; r-aFGF 1 ng/ml): 8.3 nM
- IC50 ([10]; r-aFGF 10 ng/ml): 8.1 nM
- IC50 ([10]; r-aFGF 50 ng/ml): 8.4 nM
- IC50 ([10]; r-bFGF 0 ng/ml): 8.1 nM
- IC50 ([10]; r-bFGF 1 ng/ml): 8.51 nM
- IC50 ([10]; r-bFGF 10 ng/ml): 23.8 nM
- IC50 ([10]; r-bFGF 50 ng/ml): 50.8 nM
- IC50 ([11]; r-bFGF 0 ng/ml): 10.3 nM
- IC50 ([11]; r-bFGF 1 ng/ml): 18.3 nM
- IC50 ([11]; r-bFGF 10 ng/ml): 540 nM
- IC50 ([11]; r-bFGF 50 ng/ml): 238 nM
